# Laboratory results published in patent US11542266B1, “Substituted piperidines as BTK inhibitors” (HAISCO PHARMACEUTICALS PTE. LTD., priority 2019, dated 2023).
# Counter-ions that a name gives are not always drawn.
# System: SU-DHL-4 cells
# Experiment: Inhibition of cell proliferation, SU-DHL-4 cells (Cell Viability Assay, 72 h)
# Type: cell-based, human
# Conditions: Homo sapiens
# Procedure: (§1) SU-DHL-4, Mino, and SU-DHL-6 cells, in the culture medium of RPMI1640+10% FBS, were cultured in an incubator at 37° C. under 5% CO2. Cells were plated in a 96-well plate. Specifically, SU-DHL-4 cells were at 20000/well, Mino and SU-DHL-6 cells were at 5000/well, with 90 μL/well. 10 μL of the compounds at different concentrations were added to each well. There were 3 replicate wells for each concentration, and the last column, added with DMSO, was used as a vehicle control group. The cultures were continued for 72 hours at 37° C. under 5% CO2. After 72 hours, 100 μL of detection reagent (Cell Viability Assay, Promega, G7573) was added to each well, and the cultures were uniformly mixed for 2 minutes, and incubated at room temperature for 10 minutes. The fluorescence signal value was measured with a microplate reader (PHERAstar FSX). The IC50 value of the compound on cell proliferation inhibition was calculated using Origin 9.2 software, and the inhibition rate at the highest concentration of the compound (Max inhi. %) was calculated according to formula (1). Max inhi. %=(1-T72 administration/T72 vehicle)×100 Formula (1).
row,IC50 [nM],Compound
1,70,"Nc1ncnc2c1c(-c1ccc(Oc3ccccc3)cc1)nn2C1CCN(C2CN(C3CCN(C4CCN(C5CN(c6ccc7c(c6)C(=O)N(C6CCC(=O)NC6=O)C7=O)C5)CC4)CC3)C2)CC1 (stereo not drawn) [Compound 13, 5-[3-[4-[4-[3-[4-[4-amino-3-(4-phenoxyphenyl)pyrazolo[3,4-d]pyrimidin-1-yl]-1-piperidyl]azetidin-1-yl]-1-piperidyl]-1-piperidyl]azetidin-1-yl]-2-(2,6-dioxo-3-piperidyl)isoindoline-1,3-dione]"

# Same assay, conditions: inhibition rate at the highest concentration of the compound
row,Compound,SU-DHL-4 Max inhi. % [%]
1,"Nc1ncnc2c1c(-c1ccc(Oc3ccccc3)cc1)nn2[C@@H]1CCCN(C2CCC(N3CC(Oc4ccc5c(c4)C(=O)N(C4CCC(=O)NC4=O)C5=O)C3)CC2)C1 (single isomer, unassigned) [Compound 34-a]",94.4
2,"Nc1ncnc2c1c(-c1ccc(Oc3ccccc3)cc1)nn2[C@@H]1CCCN(C2CCC(N3CC(Oc4ccc5c(c4)C(=O)N(C4CCC(=O)NC4=O)C5=O)C3)CC2)C1 (single isomer, unassigned) [Compound 34-b]",99.2
3,"Nc1ncnc2c1c(-c1ccc(Oc3ccccc3)cc1)nn2C1CCN(C2CCC(N3CC(Oc4ccc5c(c4)C(=O)N(C4CCC(=O)NC4=O)C5=O)C3)CC2)CC1 (stereo not drawn) [Compound 36-a, 5-[1-[4-[4-[4-amino-3-(4-phenoxyphenyl)pyrazolo[3,4-d]pyrimidin-1-yl]-1-piperidyl]cyclohexyl]azetidin-3-yl]oxy-2-(2,6-dioxo-3-piperidyl)isoindoline-1,3-dione]",99.6

# Same assay, conditions: inhibition rate at the highest concentration of the compound, trifluoroacetate
row,Compound,SU-DHL-4 Max inhi. % [%]
1,"Nc1ncnc2c1c(-c1ccc(Oc3ccccc3)cc1)nn2C1CCN(C2CCC(N3CC(Oc4ccc5c(c4)C(=O)N(C4CCC(=O)NC4=O)C5=O)C3)CC2)CC1 (stereo not drawn) [Compound 36-b, 5-[1-[4-[4-[4-amino-3-(4-phenoxyphenyl)pyrazolo[3,4-d]pyrimidin-1-yl]-1-piperidyl]cyclohexyl]azetidin-3-yl]oxy-2-(2,6-dioxo-3-piperidyl)isoindoline-1,3-dione trifluoroacetate]",99.8

# System: not listed separately
# Experiment: Pharmacokinetic experiment in rats (i.g. vehicle 0.5% MC)
# Type: in vivo
# Conditions: Sprague-Dawley (SD), rat, po; male SD rats, plasma, i.g. 20 mg/kg, vehicle 0.5% MC; read-out: AUC0-t
# Procedure: Objective: In this experiment, a single dose of each test compound was administered to SD rats intravenously and intragastrically, the concentrations of the test compound in plasma of rats were measured, and the pharmacokinetic characteristics and bioavailability of the test compound in rats were evaluated.
# Experimental animals: Male SD rats, 200-250 g, 6-8 weeks old, 6 rats/test compound. The experimental animals were purchased from CHENGDU DOSSY EXPERIMENTAL ANIMALS CO., LTD.
# Experimental method: On the day of the experiment, 6 SD rats were randomly grouped according to their body weight. The animals were fasted with water available for 12 to 14 hours one day before the administration of a test compound, and were fed 4 hours after the administration.
# Sampling: Before and after the administration, 0.1 ml of blood was taken from the orbit of the rats under isoflurane anesthesia, and placed in an EDTAK2 centrifuge tube. Centrifugation was carried out at 5000 rpm at 4° C. for 10 min and the plasma was collected.
# Time points for plasma collection in G1 group: 0, 5 m, 15 m, 30 m, 1 h, 2 h, 4 h, 6 h, 8 h, and 24 h.
# Time points for plasma collection in G2 group: 0, 15 m, 30 m, 1 h, 2 h, 4 h, 6 h, 8 h, and 24 h.
# Before analysis and detection, all samples were stored at −80° C. The samples were analyzed quantitatively by LC-MS/MS.
row,AUC(0-t) [ng·h/mL],Compound
1,211 ± 46,"Nc1ncnc2c1c(-c1ccc(Oc3ccccc3)cc1)nn2C1CCN(c2cnc(N3CC4CN(c5ccc6c(c5)C(=O)N(C5CCC(=O)NC5=O)C6=O)CC4C3)nc2)CC1 (stereo not drawn) [Compound 3, 5-[5-[5-[4-[4-amino-3-(4-phenoxyphenyl)pyrazolo[3,4-d]pyrimidin-1-yl]-1-piperidyl]pyrimidin-2-yl]-1,3,3a,4,6,6a-hexahydropyrrolo[3,4-c]pyrrol-2-yl]-2-(2,6-dioxo-3-piperidyl)isoindoline-1,3-dione tetratrifluoroacetate]"
2,36 ± 10,"Nc1ncnc2c1c(-c1ccc(Oc3ccccc3)cc1)nn2C1CCN(c2cnc(N3CC4(CCN(c5ccc6c(c5)C(=O)N(C5CCC(=O)NC5=O)C6=O)CC4)C3)nc2)CC1 (stereo not drawn) [Compound 4, 5-[2-[5-[4-[4-amino-3-(4-phenoxyphenyl)pyrazolo[3,4-d]pyrimidin-1-yl]-1-piperidyl]pyrimidin-2-yl]-2,7-diazaspiro[3.5]nonan-7-yl]-2-(2,6-dioxo-3-piperidyl)isoindoline-1,3-dione]"
3,81.7 ± 68,"Nc1ncnc2c1c(-c1ccc(Oc3ccccc3)cc1)nn2C1CCN(c2cnc(N3CCC4(CC3)CN(c3ccc5c(c3)C(=O)N(C3CCC(=O)NC3=O)C5=O)C4)nc2)CC1 (stereo not drawn) [Compound 5, 5-[7-[5-[4-[4-amino-3-(4-phenoxyphenyl)pyrazolo[3,4-d]pyrimidin-1-yl]-1-piperidyl]pyrimidin-2-yl]-2,7-diazaspiro[3.5]nonan-2-yl]-2-(2,6-dioxo-3-piperidyl)isoindoline-1,3-dione]"
4,105 ± 54,"Nc1ncnc2c1c(-c1ccc(Oc3ccccc3)cc1)nn2C1CCN(Cc2cnc(N3CC4(CCN(c5ccc6c(c5)C(=O)N(C5CCC(=O)NC5=O)C6=O)CC4)C3)nc2)CC1 (stereo not drawn) [Compound 7, 5-[2-[5-[[4-[4-amino-3-(4-phenoxyphenyl)pyrazolo[3,4-d]pyrimidin-1-yl]-1-piperidyl]methyl]pyrimidin-2-yl]-2,7-diazaspiro[3.5]nonan-7-yl]-2-(2,6-dioxo-3-piperidyl)isoindoline-1,3-dione tritrifluoroacetate]"

row,Compound,AUC(0-t) [ng·h/mL]
1,"Nc1ncnc2c1c(-c1ccc(Oc3ccccc3)cc1)nn2C1CCN(C2CC3(CCN(c4ccc5c(c4)C(=O)N(C4CCC(=O)NC4=O)C5=O)CC3)C2)CC1 (stereo not drawn) [Compound 1, 5-[2-[4-[4-amino-3-(4-phenoxyphenyl)pyrazolo[3,4-d]pyrimidin-1-yl]-1-piperidyl]-7-azaspiro[3.5]nonan-7-yl]-2-(2,6-dioxo-3-piperidyl)isoindoline-1,3-dione]",479 ± 197

# System: Mino cells
# Experiment: Inhibition of cell proliferation, Mino cells (Cell Viability Assay, 72 h)
# Type: cell-based, human
# Conditions: Homo sapiens
# Procedure: as §1
row,Compound,IC50 [nM]
1,"Nc1ncnc2c1c(-c1ccc(Oc3ccccc3)cc1)nn2C1CCN(C2CN(C3CCN(C4CCN(C5CN(c6ccc7c(c6)C(=O)N(C6CCC(=O)NC6=O)C7=O)C5)CC4)CC3)C2)CC1 (stereo not drawn) [Compound 13, 5-[3-[4-[4-[3-[4-[4-amino-3-(4-phenoxyphenyl)pyrazolo[3,4-d]pyrimidin-1-yl]-1-piperidyl]azetidin-1-yl]-1-piperidyl]-1-piperidyl]azetidin-1-yl]-2-(2,6-dioxo-3-piperidyl)isoindoline-1,3-dione]",677
2,"Nc1ncnc2c1c(-c1ccc(Oc3ccccc3)cc1)nn2C1CCN(C2C[C@@H]3CN(C4CN(c5ccc6c(c5)C(=O)N(C5CCC(=O)NC5=O)C6=O)C4)C[C@@H]3C2)CC1 (stereo partly drawn) [Compound 59, 5-(3-((3aR,6aS)-5-(4-(4-amino-3-(4-phenoxyphenyl)-1H-pyrazolo[3,4-d]pyrimidin-1-yl)piperidin-1-yl)hexahydrocyclopenta[c]pyrrol-2(1H)-yl)azetidin-1-yl)-2-(2,6-dioxopiperidin-3-yl)isoindoline-1,3-dione]",501
3,"Nc1ncnc2c1c(-c1ccc(Oc3ccccc3)cc1)nn2C1CCN(C2CN(C3CN(C4CN(c5ccc6c(c5)C(=O)N(C5CCC(=O)NC5=O)C6=O)C4)C3)C2)CC1 (stereo not drawn) [Compound 60, 5-(3-(4-(4-amino-3-(4-phenoxyphenyl)-1H-pyrazolo[3,4-d]pyrimidin-1-yl)piperidin-1-yl)-[1,3′:1′,3″-terazetidin]-1H-yl)-2-(2,6-dioxopiperidin-3-yl)isoindoline-1,3-dione]",165
4,"Nc1ncnc2c1c(-c1ccc(Oc3ccccc3)cc1)nn2C1CCN(C2CN(C3C[C@@H]4CN(c5ccc6c(c5)C(=O)N(C5CCC(=O)NC5=O)C6=O)C[C@@H]4C3)C2)CC1 (stereo partly drawn) [Compound 61, 5-((3aR,6aS)-5-(3-(4-(4-amino-3-(4-phenoxyphenyl)-1H-pyrazolo[3,4-d]pyrimidin-1-yl)piperidin-1-yl)azetidin-1-yl)hexahydrocyclopenta[c]pyrrol-2(1H)-yl)-2-(2,6-dioxopiperidin-3-yl)isoindoline-1,3-dione]",100
5,"Nc1ncnc2c1c(-c1ccc(Oc3ccccc3)cc1)nn2C1CCN(C2CN(C3CC4(CCN(c5ccc6c(c5)C(=O)N(C5CCC(=O)NC5=O)C6=O)CC4)C3)C2)CC1 (stereo not drawn) [Compound 62, 5-(2-(3-(4-(4-amino-3-(4-phenoxyphenyl)-1H-pyrazolo[3,4-d]pyrimidin-1-yl)piperidin-1-yl)azetidin-1-yl)-7-azaspiro[3.5]nonan-7-yl)-2-(2,6-dioxopiperidin-3-yl)isoindoline-1,3-dione]",38

# Same assay, conditions: inhibition rate at the highest concentration of the compound
row,Compound,Mino Max inhi. % [%]
1,"Nc1ncnc2c1c(-c1ccc(Oc3ccccc3)cc1)nn2C1CCN(C2CCC3(CC2)CN(C2CN(c4ccc5c(c4)C(=O)N(C4CCC(=O)NC4=O)C5=O)C2)C3)CC1 (stereo not drawn) [Compound 56, 5-(3-(7-(4-(4-amino-3-(4-phenoxyphenyl)-1H-pyrazolo[3,4-d]pyrimidin-1-yl)piperidin-1-yl)-2-azaspiro[3.5]nonan-2-yl)azetidin-1-yl)-2-(2,6-dioxopiperidin-3-yl)isoindoline-1,3-dione]",99.9
2,"Nc1ncnc2c1c(-c1ccc(Oc3ccccc3)cc1)nn2C1CCN(C2CC3CCC(C2)N3C2CN(c3ccc4c(c3)C(=O)N(C3CCC(=O)NC3=O)C4=O)C2)CC1 (stereo not drawn) [Compound 57, 5-(3-(3-(4-(4-amino-3-(4-phenoxyphenyl)-1H-pyrazolo[3,4-d]pyrimidin-1-yl)piperidin-1-yl)-8-azabicyclo[3.2.1]octan-8-yl)azetidin-1-yl)-2-(2,6-dioxopiperidin-3-yl)isoindoline-1,3-dione]",99.2
3,"Nc1ncnc2c1c(-c1ccc(Oc3ccccc3)cc1)nn2C1CCN(C2CC3CCC(C2)N3c2ccc3c(c2)C(=O)N(C2CCC(=O)NC2=O)C3=O)CC1 (stereo not drawn) [Compound 58, 5-(3-(4-(4-amino-3-(4-phenoxyphenyl)-1H-pyrazolo[3,4-d]pyrimidin-1-yl)piperidin-1-yl)-8-azabicyclo[3.2.1]octan-8-yl)-2-(2,6-dioxopiperidin-3-yl)isoindoline-1,3-dione]",95.3
